Experimental data taken from patent publication US7358417B2, “Transgenic organism expressing fungal MRP-like ABC transporters” (priority 2001, dated 2008).
“And” between values parts separate entries of the source, which are not always exact repeats. Identical values can stand only once.

How the values were obtained:
Arabidopsis plants = assay: Growth of Arabidopsis plants in the presence of noxious materials; type: in vivo, Arabidopsis thaliana; details: 60 μM pentavalent arsenic three weeks, 60 μM CDNB two months
[1] = tested on: ycf1-pESC yeast, wt-pESC yeast, ycf1-YCF1 yeast; assay: Heavy metal content of recombinant yeasts by atomic absorption spectrometer; type: cell-based, Saccharomyces cerevisiae; details: one day
Method: Three kinds of yeasts (ycf1-pESC yeast, wt-pESC yeast, and ycf1-YCF1 yeast) were each cultured in 1/2 galactose solid media containing 1.5 mM lead or 15 uM cadmium for one day, and the cultured yeasts were scraped for harvest. The harvested yeasts were put into 1 ml of concentrated nitric acid, digested for 200° C. for about 6 hours, and then diluted with 10 ml of 0.5 N nitric acid, and the amount of heavy metals contained in the yeasts was measured using an atomic absorption spectrometer (AAS). The measurement results for ycf1-pESC yeast, wt-pESC yeast, and ycf1-YCF1 yeast are represented by graph In FIG. 3.

YCF1 Arabidopsis plants = assay: Accumulation of heavy metals in transformed Arabidopsis plants; type: in vivo, Arabidopsis thaliana; details: three weeks
Method: YCF1 Arabidopsis plants obtained in Example 5 and wild-type Arabidopsis transformed with empty vector, PBI, were cultivated in 1/2 MS media containing lead (0.75 mM) and cadmium (70 μM) for three weeks to investigate accumulation of heavy metals.

yeast = assay: Growth of yeast on lead or cadmium-containing media; type: cell-based, Saccharomyces cerevisiae; details: for Growth of ycf1-YCF1 yeast in media containing lead or cadmium: 1.8 mM lead or 50 uM cadmium, galactose media; for Growth of ycf1 mutant yeast as compared with wild-type yeast: 3 mM lead or 0.1 mM cadmium, three days
Method: Wild-type yeast (DTY 165) and ycf1 mutant yeast (DTY 167, MATa ura3 leu2 his3 trp3 lys2 suc2 ycf::hisG) were cultured in YPD liquid media (1% yeast extract, 2% peptone, 2% dextrose) at 30° C. until OD600 reached 1-2, and then yeast cells of the same number (1×10^2, 1×10^3, 1×10^4 or 1×10^5) were cultured in half-diluted YPD solid media containing 3 mM lead at 30° C. for three days. Likewise, they were also cultured in half-diluted YPD solid media containing 0.1 mM cadmium.
The ycf1-pESC yeast, wt-pESC yeast, and ycf1-YCF1 yeast 25 constructed above were each cultured in galactose media (2% galactose, 1% of 0.17% YNB, 0.13% dropout powder, 0.5% ammonium sulfate) to which 1.8 mM lead was added, or in galactose media to which 50 uM of cadmium was added. Control group was cultured in galactose media without heavy metals. Growth degree of each of the recombinant ycf1-pESC yeast, wt-pESC yeast, and ycf1-YCF1 yeast in lead or cadmium-containing media is shown in the photographs of FIG. 2.
Resistance to lead in wt-v yeast, yhl035c-v yeast, and YHL035C yeast was tested according to methods substantially similar to the above Example 3-2.

[2] = tested on: vacuoles of YCF1 transformed plants; assay: Accumulation of GS-associated compounds in vacuoles separated from YCF1 transformed Arabidopsis
Method: (§1) To Investigate that these phenomena occurred due to the fact that YCF1 proteins transport heavy metals into vacuoles, the vacuoles were separated from YCF1 transformed plants and wild-type plants, and experiments of transporting cadmium and herbicides were carried out.

[3] = tested on: vacuoles of wild-type plants; assay: Accumulation of GS-associated compounds in vacuoles separated from wild-type Arabidopsis
Method: as §1

poplar = assay: Growth of poplar plants in the presence of lead; type: in vivo, Populus alba ×P. glandulosa
Method: The leaf fragments and stalks of YCF1 poplar plants prepared in Example 5 were mounted on callus-inducible media containing 500 ppm of lead, and cultivated for two weeks to Investigate the difference In their growth. As a control, wild-type poplar plants, which were not transformed, were treated in the same manner, and the results of the experiments are shown in FIG. 10.
YHL035C transformed poplar plants prepared in Example 5 were transferred to a pot and allowed to grow into pot seedlings. These pot seedlings were transferred to soil that was dipped into a solution containing 500 ppm of […].

[4] = YCF1 transformed vacuoles, +MgATP

SMILES: [Cd] [cadmium]
- Growth of wild-type Arabidopsis (Arabidopsis plants; cadmium various concentrations): more chlorosis in leaves
- Accumulation of cadmium in wt-pESC yeast and ycf1-YCF1 yeast compared with ycf1-pESC yeast ([1]; 15 uM cadmium): high accumulation
- Accumulation of cadmium in YCF1 Arabidopsis plants relative to PBI (YCF1 Arabidopsis plants; 70 μM cadmium): 2 fold and 3 fold
- Growth of ycf1-YCF1 yeast in media containing lead or cadmium (yeast): grew better than ycf1-pESC yeast or wt-pESC yeast
- Growth of ycf1 mutant yeast as compared with wild-type yeast (yeast): grew little

SMILES: N[C@@H](CCC(=O)N[C@@H](CSc1ccc([N+](=O)[O-])cc1[N+](=O)[O-])C(=O)NCC(=O)O)C(=O)O [DNB − GS]
- Accumulation in YCF1 transformants relative to wild-type (in words) ([2]; +MgATP): a little higher accumulation than wild-type
- Accumulation in the vacuoles, YCF1 Transformed Plants, +MgATP [2, 4]: 33 ± 1.2 pmol/1 ul vacuole/20 min
- Accumulation in the vacuoles, YCF1 Transformed Plants, −MgATP ([2]; YCF1 transformed vacuoles, −MgATP): 24 ± 0.9 pmol/1 ul vacuole/20 min
- Accumulation in the vacuoles, Wild-type Plants, +MgATP [3]: 28 ± 1.3 pmol/1 ul vacuole/20 min
- Accumulation in the vacuoles, Wild-type Plants, −MgATP ([3]; −MgATP): 21 ± 1.1 pmol/1 ul vacuole/20 min

SMILES: N[C@@H](CCC(=O)N[C@@H](CS)C(=O)NCC(=O)O)C(=O)O [GSH]
- Accumulation in the vacuoles, YCF1 Transformed Plants, +MgATP [2, 4]: 69 ± 1.1 pmol/1 ul vacuole/20 min
- Accumulation in the vacuoles, Wild-type Plants, +MgATP [3]: 70 ± 2.2 pmol/1 ul vacuole/20 min

SMILES: [Pb] [lead]
- Growth in stalk pieces of YCF1 poplar relative to wild-type (poplar; 500 ppm of lead, two weeks): ~2 fold
- Growth of YHL035C transformant poplar in soil containing lead (poplar; 500 ppm, four weeks): grew much better than the wild-type
- Growth of wild-type poplar in soil containing lead (poplar; 500 ppm, four weeks): grew poorly
- Growth of YCF1 Arabidopsis (Arabidopsis plants; lead three weeks): less chlorosis In leaves and better growth of roots
- Accumulation of lead in wt-pESC yeast and ycf1-YCF1 yeast relative to ycf1-pESC yeast ([1]; 1.5 mM lead): ~2 fold
- Accumulation of lead in YCF1 Arabidopsis plants relative to PBI (YCF1 Arabidopsis plants; 0.75 mM lead): 2 fold and 1.4 fold
- Sensitivity of yhl035c-v yeast (yeast; 1.8 mM lead): more sensitive than wt-v yeast
- Growth of ycf1-YCF1 yeast in media containing lead or cadmium (yeast): grew better than ycf1-pESC yeast or wt-pESC yeast
- Growth of ycf1 mutant yeast as compared with wild-type yeast (yeast): decreased
